# Laboratory results as given in ChEMBL document CHEMBL1201862, “PubChem BioAssay data set” (2004).
#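 Five concentrations, 48 hours, 96-well plates. The concentration for 50% growth inhibition is given as GI50.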 Activity calls are given as the source filed them. Cut-off read from the data, not from the text of the source: active = GI50 up to about 1.1 µM and inactive = higher.
# Assays:
# Assay in all cases: NCI-60 cell line screen, 48 h
# 786-0 = test system: 786-0
# A549 = test system: A549
# ACHN = test system: ACHN
# CCRF-CEM = test system: CCRF-CEM
# COLO 205 = test system: COLO 205
# DLD-1 = test system: DLD-1
# DMS-114 = test system: DMS-114
# DMS-273 = test system: DMS-273
# EKVX = test system: EKVX
# HCT-116 = test system: HCT-116
# HCT-15 = test system: HCT-15
# HL-60 = test system: HL-60
# HOP-18 = test system: HOP-18
# HOP-62 = test system: HOP-62
# HT-29 = test system: HT-29
# IGROV-1 = test system: IGROV-1
# K562 = test system: K562
# KM-20L2 = test system: KM-20L2
# KM12 = test system: KM12
# LOX IMVI = test system: LOX IMVI
# M14 = test system: M14
# M19-MEL = test system: M19-MEL
# MOLT-4 = test system: MOLT-4
# Malme-3M = test system: Malme-3M
# NCI-H23 = test system: NCI-H23
# NCI-H460 = test system: NCI-H460
# NCI-H522 = test system: NCI-H522
# OVCAR-3 = test system: OVCAR-3
# OVCAR-8 = test system: OVCAR-8
# RPMI-8226 = test system: RPMI-8226
# RXF 393 = test system: RXF 393
# SF-295 = test system: SF-295
# SF-539 = test system: SF-539
# SK-MEL-28 = test system: SK-MEL-28
# SK-MEL-5 = test system: SK-MEL-5
# SK-OV-3 = test system: SK-OV-3
# SN12C = test system: SN12C
# SNB-75 = test system: SNB-75
# SW-620 = test system: SW-620
# TK-10 = test system: TK-10
# U-251 = test system: U-251
# UACC-257 = test system: UACC-257
# UACC-62 = test system: UACC-62
# XF498 = test system: XF498
# CAKI-1 = test system: CAKI-1
# HOP-92 = test system: HOP-92
# LXFL 529 = test system: LXFL 529
# NCI-H226 = test system: NCI-H226
# OVCAR-4 = test system: OVCAR-4
# OVCAR-5 = test system: OVCAR-5
# SF-268 = test system: SF-268
# SNB-19 = test system: SNB-19
# SR = test system: SR
# UO-31 = test system: UO-31
# HCC 2998 = test system: HCC 2998
# SK-MEL-2 = test system: SK-MEL-2
# SNB-78 = test system: SNB-78
compound,measurement,setting,value
O=C(Nc1cc(Cl)ccc1Cl)c1cc2cccc(Cl)c2oc1=O,GI50,786-0,> 100 µM (inactive)
same,GI50,A549,> 100 µM (inactive)
same,GI50,ACHN,> 100 µM (inactive)
same,GI50,CCRF-CEM,> 100 µM (inactive)
same,GI50,COLO 205,> 100 µM (inactive)
same,GI50,DLD-1,> 100 µM (inactive)
same,GI50,DMS-114,> 100 µM (inactive)
same,GI50,DMS-273,> 100 µM (inactive)
same,GI50,EKVX,> 100 µM (inactive)
same,GI50,HCT-116,> 100 µM (inactive)
same,GI50,HCT-15,> 100 µM
same,GI50,HL-60,> 100 µM (inactive)
same,GI50,HOP-18,40.2 µM (inactive)
same,GI50,HOP-62,> 100 µM (inactive)
same,GI50,HT-29,> 100 µM (inactive)
same,GI50,IGROV-1,> 100 µM (inactive)
same,GI50,K562,> 100 µM (inactive)
same,GI50,KM-20L2,> 100 µM (inactive)
same,GI50,KM12,> 100 µM (inactive)
same,GI50,LOX IMVI,> 100 µM (inactive)
same,GI50,M14,> 100 µM (inactive)
same,GI50,M19-MEL,> 100 µM (inactive)
same,GI50,MOLT-4,> 100 µM (inactive)
same,GI50,Malme-3M,> 100 µM (inactive)
same,GI50,NCI-H23,> 100 µM (inactive)
same,GI50,NCI-H460,> 100 µM (inactive)
same,GI50,NCI-H522,> 100 µM (inactive)
same,GI50,OVCAR-3,> 100 µM (inactive)
same,GI50,OVCAR-8,47.1 µM (inactive)
same,GI50,RPMI-8226,> 100 µM (inactive)
same,GI50,RXF 393,> 100 µM (inactive)
same,GI50,SF-295,> 100 µM (inactive)
same,GI50,SF-539,> 100 µM (inactive)
same,GI50,SK-MEL-28,> 100 µM (inactive)
same,GI50,SK-MEL-5,> 100 µM (inactive)
same,GI50,SK-OV-3,> 100 µM (inactive)
same,GI50,SN12C,> 100 µM (inactive)
same,GI50,SNB-75,37.1 µM (inactive)
same,GI50,SW-620,> 100 µM (inactive)
same,GI50,TK-10,> 100 µM (inactive)
same,GI50,U-251,> 100 µM (inactive)
same,GI50,UACC-257,61.2 µM (inactive)
same,GI50,UACC-62,> 100 µM (inactive)
same,GI50,XF498,24 µM (inactive)
O=C(Nc1c(C(=O)NC2CCCCC2)[nH]c(=O)[nH]c1=O)c1ccc(Cl)cc1,GI50,A549,> 100 µM (inactive)
same,GI50,ACHN,> 100 µM (inactive)
same,GI50,CAKI-1,> 100 µM (inactive)
same,GI50,CCRF-CEM,> 100 µM (inactive)
same,GI50,COLO 205,> 100 µM (inactive)
same,GI50,DLD-1,> 100 µM (inactive)
same,GI50,DMS-114,> 100 µM (inactive)
same,GI50,EKVX,> 100 µM (inactive)
same,GI50,HCT-116,> 100 µM (inactive)
same,GI50,HCT-15,> 100 µM
same,GI50,HL-60,> 100 µM (inactive)
same,GI50,HOP-18,> 100 µM (inactive)
same,GI50,HOP-62,> 100 µM (inactive)
same,GI50,HOP-92,> 100 µM (inactive)
same,GI50,HT-29,> 100 µM (inactive)
same,GI50,IGROV-1,> 100 µM (inactive)
same,GI50,K562,> 100 µM (inactive)
same,GI50,KM12,49.3 µM (inactive)
same,GI50,LOX IMVI,> 100 µM (inactive)
same,GI50,LXFL 529,> 100 µM (inactive)
same,GI50,M14,> 100 µM (inactive)
same,GI50,M19-MEL,> 100 µM (inactive)
same,GI50,MOLT-4,> 100 µM (inactive)
same,GI50,Malme-3M,> 100 µM (inactive)
same,GI50,NCI-H226,> 100 µM (inactive)
same,GI50,NCI-H460,> 100 µM (inactive)
same,GI50,NCI-H522,44.3 µM (inactive)
same,GI50,OVCAR-3,> 100 µM (inactive)
same,GI50,OVCAR-4,> 100 µM (inactive)
same,GI50,OVCAR-5,> 100 µM (inactive)
same,GI50,OVCAR-8,> 100 µM (inactive)
same,GI50,RPMI-8226,> 100 µM (inactive)
same,GI50,RXF 393,79.6 µM (inactive)
same,GI50,SF-268,> 100 µM (inactive)
same,GI50,SF-295,> 100 µM (inactive)
same,GI50,SF-539,> 100 µM (inactive)
same,GI50,SK-MEL-28,> 100 µM (inactive)
same,GI50,SK-MEL-5,> 100 µM (inactive)
same,GI50,SK-OV-3,> 100 µM (inactive)
same,GI50,SN12C,> 100 µM (inactive)
same,GI50,SNB-19,< 0.01 µM (active)
same,GI50,SNB-75,22 µM (inactive)
same,GI50,SR,> 100 µM (inactive)
same,GI50,SW-620,> 100 µM (inactive)
same,GI50,TK-10,> 100 µM (inactive)
same,GI50,UACC-62,> 100 µM (inactive)
same,GI50,UO-31,> 100 µM (inactive)
same,GI50,XF498,> 100 µM (inactive)
O=C(NC1C=CCC2C(=O)N(c3ccccc3)C(=O)C12)OCc1ccccc1 (stereo unspecified),GI50,786-0,> 100 µM (inactive)
same,GI50,A549,> 100 µM (inactive)
same,GI50,ACHN,> 100 µM (inactive)
same,GI50,CAKI-1,> 100 µM (inactive)
same,GI50,CCRF-CEM,> 100 µM (inactive)
same,GI50,COLO 205,> 100 µM (inactive)
same,GI50,DLD-1,> 100 µM (inactive)
same,GI50,DMS-273,> 100 µM (inactive)
same,GI50,EKVX,> 100 µM (inactive)
same,GI50,HCC 2998,> 100 µM (inactive)
same,GI50,HCT-116,> 100 µM (inactive)
same,GI50,HL-60,> 100 µM (inactive)
same,GI50,HOP-18,> 100 µM (inactive)
same,GI50,HOP-62,> 100 µM (inactive)
same,GI50,HOP-92,> 100 µM (inactive)
same,GI50,HT-29,> 100 µM (inactive)
same,GI50,IGROV-1,> 100 µM (inactive)
same,GI50,K562,> 100 µM (inactive)
same,GI50,KM-20L2,> 100 µM (inactive)
same,GI50,KM12,> 100 µM (inactive)
same,GI50,LOX IMVI,> 100 µM (inactive)
same,GI50,LXFL 529,> 100 µM (inactive)
same,GI50,M14,> 100 µM (inactive)
same,GI50,M19-MEL,> 100 µM (inactive)
same,GI50,MOLT-4,> 100 µM (inactive)
same,GI50,NCI-H226,> 100 µM (inactive)
same,GI50,NCI-H23,> 100 µM (inactive)
same,GI50,NCI-H460,> 100 µM (inactive)
same,GI50,NCI-H522,> 100 µM (inactive)
same,GI50,OVCAR-3,> 100 µM (inactive)
same,GI50,OVCAR-4,> 100 µM (inactive)
same,GI50,OVCAR-5,97.3 µM (inactive)
same,GI50,OVCAR-8,> 100 µM (inactive)
same,GI50,RPMI-8226,> 100 µM (inactive)
same,GI50,RXF 393,> 100 µM (inactive)
same,GI50,SF-268,> 100 µM (inactive)
same,GI50,SF-295,> 100 µM (inactive)
same,GI50,SF-539,> 100 µM (inactive)
same,GI50,SK-MEL-28,> 100 µM (inactive)
same,GI50,SK-MEL-2,57.7 µM (inactive)
same,GI50,SK-MEL-5,> 100 µM (inactive)
same,GI50,SK-OV-3,> 100 µM (inactive)
same,GI50,SN12C,> 100 µM (inactive)
same,GI50,SNB-19,> 100 µM (inactive)
same,GI50,SNB-75,> 100 µM (inactive)
same,GI50,SNB-78,> 100 µM (inactive)
same,GI50,SR,> 100 µM (inactive)
same,GI50,SW-620,> 100 µM (inactive)
same,GI50,TK-10,> 100 µM (inactive)
same,GI50,U-251,> 100 µM (inactive)
same,GI50,UACC-257,> 100 µM (inactive)
same,GI50,UACC-62,> 100 µM (inactive)
same,GI50,UO-31,> 100 µM (inactive)
same,GI50,XF498,> 100 µM (inactive)
